Measurements from PubChem BioAssay (NCI).
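Cultured in 96-well plates, cells were exposed to test compound for 48 hours across five concentrations. The concentration for full growth arrest is given as TGI.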

What was measured:
Experiment in all cases: NCI anticancer screen, dose series, 48 h
[1] = test system: CAKI-1 renal
[2] = test system: NCI-H226 lung
[3] = test system: NCI-H522 lung
[4] = test system: OVCAR-4 ovarian
[5] = test system: KM12 colon
[6] = test system: SN12C renal
[7] = test system: LOX IMVI melanoma
[8] = test system: MDA-MB-231 breast
[9] = test system: MALME-3M melanoma
[10] = test system: ACHN renal
[11] = test system: A549 NSCLC
[12] = test system: CCRF-CEM leukemia
[13] = test system: HOP-62 NSCLC
[14] = test system: K-562 leukemia

Question: How did the TGI [1] turn out when `CC(=O)NC1C(O)C(O)C(CO)OC1n1ncc(=O)[nH]c1=O` (centres undefined) was run?
Answer: The TGI was over 100 µM.

Question: What about the TGI [2] of the same molecule?
Answer: Its TGI is over 100 µM.

Question: What about the TGI [3] of the same molecule?
Answer: Its TGI is over 100 µM.

Question: What about the TGI [4] of the same molecule?
Answer: The TGI was over 100 µM.

Question: And the TGI [5]?
Answer: Its TGI is over 100 µM.

Question: And the TGI [6]?
Answer: Its TGI is over 100 µM.

Question: What about the TGI [7] of the same molecule?
Answer: Its TGI is over 100 µM.

Question: What about the TGI [8] of the same molecule?
Answer: The TGI was over 100 µM.

Question: What about the TGI [9] of the same molecule?
Answer: Its TGI is over 100 µM.

Question: What about the TGI [10] of the same molecule?
Answer: Its TGI is over 100 µM.

Question: What about the TGI [11] of the same molecule?
Answer: The TGI was over 100 µM.

Question: What about the TGI [12] of the same molecule?
Answer: Its TGI is over 100 µM.

Question: What about the TGI [13] of the same molecule?
Answer: Its TGI is over 100 µM.

Question: What about the TGI [14] of the same molecule?
Answer: The TGI was over 100 µM.

Question: What does the source list for `CNn1c(C)n[nH]c1=O`?
Answer: TGI [1]: > 100 µM; TGI [2]: > 100 µM; TGI [3]: > 100 µM; TGI [4]: > 100 µM; TGI [5]: > 100 µM; TGI [6]: > 100 µM; TGI [7]: > 100 µM; TGI [8]: > 100 µM; TGI [9]: > 100 µM; TGI [10]: > 100 µM; TGI [11]: > 100 µM; TGI [12]: > 100 µM; TGI [13]: > 100 µM; TGI [14]: > 100 µM

Question: How did the TGI [1] turn out when `CCCCC(=O)NC1(c2cc3ccccc3s2)CCCCC1` was run?
Answer: The TGI was over 100 µM.

Question: And the TGI [2]?
Answer: Its TGI is over 100 µM.

Question: And the TGI [3]?
Answer: The TGI was over 100 µM.

Question: What about the TGI [4] of the same molecule?
Answer: Its TGI is over 100 µM.

Question: And the TGI [5]?
Answer: The TGI was over 100 µM.

Question: What about the TGI [6] of the same molecule?
Answer: Its TGI is over 100 µM.

Question: What about the TGI [7] of the same molecule?
Answer: Its TGI is over 100 µM.

Question: And the TGI [8]?
Answer: The TGI was over 100 µM.

Question: What about the TGI [9] of the same molecule?
Answer: The TGI was over 100 µM.

Question: What about the TGI [10] of the same molecule?
Answer: The TGI was over 100 µM.

Question: What about the TGI [11] of the same molecule?
Answer: The TGI was over 100 µM.

Question: What about the TGI [12] of the same molecule?
Answer: The TGI was over 100 µM.

Question: And the TGI [13]?
Answer: The TGI was over 100 µM.

Question: And the TGI [14]?
Answer: The TGI was over 100 µM.

Question: Which TGI [1] does the source give for `COc1ccc(-c2c(CN3CCOCC3)sc3nc4ccccc4n23)cc1` here?
Answer: Its TGI is over 100 µM.

Question: And the TGI [2]?
Answer: Its TGI is over 79.8 µM.

Question: What about the TGI [3] of the same molecule?
Answer: Its TGI is over 20.2 µM.

Question: What about the TGI [4] of the same molecule?
Answer: Its TGI is over 100 µM.

Question: And the TGI [5]?
Answer: The TGI was over 100 µM.

Question: And the TGI [6]?
Answer: The TGI was over 100 µM.

Question: And the TGI [7]?
Answer: The TGI was over 100 µM.

Question: And the TGI [8]?
Answer: The TGI was over 68.9 µM.

Question: What about the TGI [9] of the same molecule?
Answer: Its TGI is over 100 µM.

Question: What about the TGI [10] of the same molecule?
Answer: Its TGI is over 100 µM.

Question: What about the TGI [11] of the same molecule?
Answer: The TGI was over 86.1 µM.

Question: What about the TGI [12] of the same molecule?
Answer: The TGI was 56.2 µM.

Question: And the TGI [13]?
Answer: Its TGI is over 100 µM.

Question: And the TGI [14]?
Answer: Its TGI is over 28.7 µM.

Question: Which results are given for `CC(=O)OC1COC(n2c(-c3ccc(Cl)cc3)cc(-c3ccccc3)c(C#N)c2=S)C(OC(C)=O)C1OC(C)=O` (centres undefined)?
Answer: TGI [1]: 50 µM; TGI [2]: 32.3 µM; TGI [3]: > 100 µM; TGI [4]: 11.1 µM; TGI [5]: > 100 µM; TGI [6]: 31.8 µM; TGI [7]: 15.5 µM; TGI [8]: 9.38 µM; TGI [9]: > 100 µM; TGI [10]: > 31.6 µM; TGI [11]: 30.6 µM; TGI [12]: > 86.1 µM; TGI [13]: 28.4 µM; TGI [14]: > 59.8 µM

Question: `[O-][n+]1onc(-c2ccccc2)c1CN1CCOCC1` was tested. Which TGI [1] did it give?
Answer: The TGI was over 100 µM.

Question: And the TGI [2]?
Answer: Its TGI is over 100 µM.

Question: What about the TGI [3] of the same molecule?
Answer: Its TGI is over 100 µM.

Question: And the TGI [4]?
Answer: Its TGI is over 100 µM.

Question: And the TGI [5]?
Answer: Its TGI is over 100 µM.

Question: What about the TGI [6] of the same molecule?
Answer: Its TGI is over 100 µM.

Question: And the TGI [7]?
Answer: The TGI was over 100 µM.

Question: What about the TGI [8] of the same molecule?
Answer: Its TGI is over 100 µM.

Question: And the TGI [9]?
Answer: Its TGI is over 100 µM.

Question: What about the TGI [10] of the same molecule?
Answer: Its TGI is over 100 µM.

Question: And the TGI [11]?
Answer: Its TGI is over 100 µM.

Question: And the TGI [12]?
Answer: The TGI was over 100 µM.

Question: And the TGI [13]?
Answer: The TGI was over 100 µM.

Question: What about the TGI [14] of the same molecule?
Answer: Its TGI is over 100 µM.
